Experiment [1] concerns the target T1, Protein kinase C beta type (Homo sapiens, UniProt P05771). Briefly: Inhibitory concentration against recombinant human Protein kinase C beta 2.
The target of experiment [2] is T2, Protein kinase C epsilon type (Homo sapiens, UniProt Q02156).
T2 sequence (Q02156 whole entry): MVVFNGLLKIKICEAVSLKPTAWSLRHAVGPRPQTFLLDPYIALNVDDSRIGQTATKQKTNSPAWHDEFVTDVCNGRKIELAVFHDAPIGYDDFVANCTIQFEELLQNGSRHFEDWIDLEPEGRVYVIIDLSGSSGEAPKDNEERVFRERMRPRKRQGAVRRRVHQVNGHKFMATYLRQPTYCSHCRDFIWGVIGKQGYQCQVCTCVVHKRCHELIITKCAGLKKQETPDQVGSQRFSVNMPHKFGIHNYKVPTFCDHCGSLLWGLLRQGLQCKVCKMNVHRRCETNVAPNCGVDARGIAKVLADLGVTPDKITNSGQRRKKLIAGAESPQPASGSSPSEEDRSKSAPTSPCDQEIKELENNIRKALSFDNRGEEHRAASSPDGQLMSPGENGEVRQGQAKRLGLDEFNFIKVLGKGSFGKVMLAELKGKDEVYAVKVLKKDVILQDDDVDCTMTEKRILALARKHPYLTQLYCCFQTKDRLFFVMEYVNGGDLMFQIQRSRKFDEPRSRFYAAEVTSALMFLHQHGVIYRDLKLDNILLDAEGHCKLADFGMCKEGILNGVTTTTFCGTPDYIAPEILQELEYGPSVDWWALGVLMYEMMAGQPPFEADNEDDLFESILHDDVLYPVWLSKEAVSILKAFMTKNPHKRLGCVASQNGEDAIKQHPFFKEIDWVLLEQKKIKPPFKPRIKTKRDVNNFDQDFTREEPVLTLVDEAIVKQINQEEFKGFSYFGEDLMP
Put plainly: Inhibitory concentration against recombinant human Protein kinase C epsilon.

Experiment [3] concerns the target T1, Protein kinase C beta type. Put plainly: Inhibitory concentration against recombinant human Protein kinase C beta 1.
Experiment [4] concerns the target Protein kinase C alpha type (Homo sapiens, UniProt P17252). Put plainly: Inhibitory concentration against recombinant human Protein kinase C alpha.

T1 sequence (P05771 whole entry): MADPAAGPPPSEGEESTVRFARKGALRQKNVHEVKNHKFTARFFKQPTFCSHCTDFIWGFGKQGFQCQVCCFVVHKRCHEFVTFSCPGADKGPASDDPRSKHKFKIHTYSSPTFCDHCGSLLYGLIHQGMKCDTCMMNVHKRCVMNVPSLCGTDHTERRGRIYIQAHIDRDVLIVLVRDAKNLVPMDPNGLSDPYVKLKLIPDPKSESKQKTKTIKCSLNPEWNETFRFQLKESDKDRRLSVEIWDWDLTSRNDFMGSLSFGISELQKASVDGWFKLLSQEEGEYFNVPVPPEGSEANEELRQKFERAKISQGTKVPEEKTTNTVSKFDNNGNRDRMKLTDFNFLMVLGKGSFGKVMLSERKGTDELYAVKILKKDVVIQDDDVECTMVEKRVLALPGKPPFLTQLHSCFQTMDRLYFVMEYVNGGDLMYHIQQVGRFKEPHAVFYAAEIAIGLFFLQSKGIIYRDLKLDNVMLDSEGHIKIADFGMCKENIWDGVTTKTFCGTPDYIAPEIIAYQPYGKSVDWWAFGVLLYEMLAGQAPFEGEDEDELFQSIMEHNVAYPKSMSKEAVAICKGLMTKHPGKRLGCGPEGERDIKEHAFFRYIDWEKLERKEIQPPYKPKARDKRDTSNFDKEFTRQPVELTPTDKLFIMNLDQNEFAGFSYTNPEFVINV

The term IC50 denotes the concentration that gives 50% inhibition. Consider `Cc1ccccc1NC1=C(c2c[nH]c3ccccc23)C(=O)NC1=O`, for which the IC50 in experiment [1] came out at 2.15 µM.
For the compound `Cc1cccc(NC2=C(c3cn(CCCN(C)C)c4ccccc34)C(=O)NC2=O)c1`, in experiment [2], the IC50 amounted to 3.46 µM.
Still for that read-out and setting: in the case of `CN(C)CCCn1cc(C2=C(Nc3ccccc3)C(=O)NC2=O)c2ccccc21` it was 3.46 µM.
Consider `CN(C1=C(c2c[nH]c3ccccc23)C(=O)NC1=O)c1ccccc1`, for which the IC50 in experiment [1] was determined as 0.939 µM.
Same read-out and setting: in the case of `O=C1NC(=O)C(c2c[nH]c3ccccc23)=C1NCc1ccccc1` it was above 10 µM.
With `CN(C)CCn1cc(C2=C(Nc3ccccc3)C(=O)NC2=O)c2ccccc21`, in experiment [2], the IC50 is above 10 µM.
With `COc1cccc(NC2=C(c3c[nH]c4ccccc34)C(=O)NC2=O)c1`, the IC50 in experiment [1] came to 0.747 µM.
As to `CC(C)c1cccc(NC2=C(c3c[nH]c4ccccc34)C(=O)NC2=O)c1`, the IC50 in experiment [1] turned out to be 2.86 µM.
In the case of `CN(C)CCCn1cc(C2=C(Nc3cccc(Cl)c3)C(=O)NC2=O)c2ccccc21`, in experiment [2], the 50% inhibitory concentration (IC50) amounted to 2.61 µM.
In the case of `O=C1NC(=O)C(c2c[nH]c3ccccc23)=C1NC1CCCCC1`, the IC50 in experiment [1] amounted to 2.45 µM.
Consider `CN(C)CCCCn1cc(C2=C(Nc3ccccc3)C(=O)NC2=O)c2ccccc21`, for which the IC50 in experiment [2] is 5.87 µM.
In the case of `O=C1NC(=O)C(c2cn(CCCn3ccnc3)c3ccccc23)=C1Nc1ccccc1`, the IC50 in experiment [2] was found to be 2.81 µM; in experiment [3], 0.021 µM.
As to `O=C1NC(=O)C(c2cn(CCCO)c3ccccc23)=C1Nc1ccccc1`, in experiment [2], the IC50 is 6.32 µM.
As to `N=C(N)SCCCn1cc(C2=C(Nc3ccccc3)C(=O)NC2=O)c2ccccc21`, the IC50 in experiment [2] is 0.058 µM.
Regarding `CN(C)CCCCCn1cc(C2=C(Nc3ccccc3)C(=O)NC2=O)c2ccccc21`, the figures for the 50% inhibitory concentration (IC50) in experiment [4], in experiment [2] and in experiment [1] were 2.23 µM, 3.91 µM and 0.041 µM, respectively.
`O=C1NC(=O)C(c2cn(CCCN3CCCCC3)c3ccccc23)=C1Nc1ccccc1`: the IC50 in experiment [2] was 3.42 µM.
With `CN1CCN(CCCn2cc(C3=C(Nc4ccccc4)C(=O)NC3=O)c3ccccc32)CC1`, in experiment [2], the IC50 was above 10 µM.
For `Cc1ccc(NC2=C(c3c[nH]c4ccccc34)C(=O)NC2=O)cc1`, in experiment [1], the IC50 stood at 0.48 µM.
For `O=C1NC(=O)C(c2c[nH]c3ccccc23)=C1Nc1ccccc1`, the IC50 is above 10 µM in experiment [2] and 0.395 µM in experiment [3].
With `O=C1NC(=O)C(c2c[nH]c3ccccc23)=C1c1c[nH]c2ccccc12` [RO-316233], the IC50 in experiment [4] was 1.6 µM; in experiment [2] it was 7.52 µM; in experiment [3], 0.304 µM; in experiment [1], 0.212 µM.
With `O=C1NC(=O)C(c2cn(CCCN3CCCC3)c3ccccc23)=C1Nc1ccccc1`, in experiment [2], the IC50 was above 10 µM.
As to `O=C1NC(=O)C(c2c[nH]c3ccccc23)=C1Nc1cccc(C(F)(F)F)c1`, in experiment [1], the IC50 was 1.45 µM.

These data come from ChEMBL document CHEMBL1137905, “Synthesis of anilino-monoindolylmaleimides as potent and selective PKCbeta inhibitors” (Bioorg Med Chem Lett, 2004).
